Assay results: patent US7056891B2 (priority 2000, dated 2006)
Read-outs that look alike come from different tables or passages of the source.

Experiments:
TSST-1 = format: cell-based, S. aureus MN8
S. aureus MN8 = format: cell-based, Staphylococcus aureus; details: 24 hours at 35° C.

Substance | TSST-1 (TSST-1; 24 hours at 35° C.) [ng/mL] | Final [S. aureus] (S. aureus MN8) | TSST-1 (TSST-1) [ng/mL]
Steareth-2 | 680.7 | 5.76 x10^9 CFU/ml | 
Laureth-4 | 531.8 | 4.57 x10^9 CFU/ml | 
PPG-5 Laureth-5 |  | 3.82 x10^9 CFU/ml | 609.2
